Where two headings read alike, the source gives them in different places.
Experiments:
[1] = system: wild-type HIV-1 (HIV-1LAI) in H9 cells (non-permissive); test: microbe, parasite or virus in culture; type: cell-based
[2] = system: wild-type HIV-1 (HIV-1LAI) in MT-4 cells (permissive); test: Antiviral activity assay: wild-type HIV-1 in permissive MT4 cells, reverse transcriptase activity in culture supernatants; type: cell-based
[3] = Human immunodeficiency virus 1, H9, read-out: Antiviral activity (IC50 μM) H9, Table 2, wild-type HIV-1, non-permissive H9 cells
[4] = Human immunodeficiency virus 1, H9, read-out: Antiviral activity (IC50 μM) H9 Cells, Table 4, wild-type HIV-1, non-permissive H9 cells
[5] = Human immunodeficiency virus 1, H9, read-out: Antiviral activity (IC50 μM) H9 Cells, Table 7, wild-type HIV-1, non-permissive H9 cells
[6] = Human immunodeficiency virus 1, H9, read-out: Antiviral activity (IC50 μM) H9 cells, Table 5, wild-type HIV-1, non-permissive H9 cells
[7] = Human immunodeficiency virus 1, H9, read-out: Antiviral activity (IC50 μM) H9 cells, Table 8, wild-type HIV-1, non-permissive H9 cells
[8] = Human immunodeficiency virus 1, H9, read-out: Antiviral activity (IC50 μM) H9 cells, wild-type HIV-1 (HIV-1LAI), H9 cells (non-permissive), RT activity in culture supernatants, compounds 1 to 50 μM
[9] = Human immunodeficiency virus 1, MT4, Table 2, wild-type HIV-1, permissive MT4 cells, read-out: Antiviral activity (IC50 μM) MT4
[10] = Human immunodeficiency virus 1, MT4, wild-type HIV-1 (HIV-1LAI), MT4 cells (permissive), RT activity in culture supernatants, compounds 1 to 50 μM, read-out: Antiviral activity (IC50 μM) MT4 cells
[11] = Human immunodeficiency virus 1, H9, read-out: IC50, anti-HIV-1 activity, non-permissive H9 cells

Compound | IC50 [1, 3] | IC50 [1, 4] | IC50 [1, 5] | IC50 [1, 6] | IC50 [1, 7] | IC50 [1, 8] | IC50 [2, 9] | IC50 [2, 10] | IC50 [1, 11]
COc1ccc(S(=O)(=O)c2ccccc2-c2cn(-c3ccccc3OC)nn2)cc1 [Compound 2cy, 1-(2-Methoxyphenyl)-4-(2-((4-methoxyphenyl)sulfonyl)phenyl)-1H-1,2,3-triazole] | 4.3 µM | 4.3 µM | 4.3 µM | 4.3 µM | 4.3 µM | 4.3 µM | > 50 µM | > 50 µM | –
COc1ccc(S(=O)(=O)c2ccccc2-c2cn(-c3cccc(OC)c3OC)nn2)cc1 [Compound 3cy, 1-(2,3-Dimethoxyphenyl)-4-(2-((4-methoxyphenyl)sulfonyl)phenyl)-1H-1,2,3-triazole] | > 50 µM | – | – | > 50 µM | > 50 µM | > 50 µM | > 50 µM | > 50 µM | –
COc1cccc(F)c1-n1cc(-c2ccccc2S(=O)(=O)c2ccc(C(F)(F)F)cc2)nn1 [Compound 7dy, 1-(2-Fluoro-6-methoxyphenyl)-4-(2-((4-(trifluoromethyl)phenyl)sulfonyl)phenyl)-1H-1,2,3-triazole] | > 50 µM | – | – | > 50 µM | > 50 µM | > 50 µM | > 50 µM | > 50 µM | –
COC(=O)c1ccc(S(=O)(=O)c2ccccc2-c2cn(-c3ccccc3OC)nn2)cc1 [Compound 2by, Methyl 4-((2-(1-(2-methoxyphenyl)-1H-1,2,3-triazol-4-yl)phenyl)sulfonyl)benzoate] | > 50 µM | – | – | > 50 µM | > 50 µM | > 50 µM | > 50 µM | > 50 µM | –
COc1cccc(F)c1-n1cc(-c2ccccc2Sc2ccc(N)cc2)nn1 [Compound 7ex, 4-((2-(1-(2-Fluoro-6-methoxyphenyl)-1H-1,2,3-triazol-4-yl)phenyl)thio)aniline] | > 50 µM | – | – | > 50 µM | > 50 µM | > 50 µM | > 50 µM | > 50 µM | –
COc1cccc(-n2cc(-c3ccccc3S(=O)(=O)c3ccc(N)cc3)nn2)c1OC [Compound 3ey, 4-((2-(1-(2,3-Dimethoxyphenyl)-1H-1,2,3-triazol-4-yl)phenyl)sulfonyl)aniline] | 12.4 µM | 12.4 µM | 12.4 µM | 12.4 µM | 12.4 µM | 12.4 µM | > 50 µM | > 50 µM | –
COc1cccc(F)c1-n1cc(-c2ccccc2S(=O)(=O)c2ccc([N+](=O)[O-])cc2)nn1 [Compound 7ay, 1-(2-Fluoro-6-methoxyphenyl)-4-(2-((4-nitrophenyl)sulfonyl)phenyl)-1H-1,2,3-triazole] | > 50 µM | – | – | > 50 µM | > 50 µM | > 50 µM | > 50 µM | > 50 µM | –
COC(=O)c1ccc(Sc2ccccc2-c2cn(-c3c(F)cccc3OC)nn2)cc1 [Compound 7bx, Methyl 4-((2-(1-(2-fluoro-6-methoxyphenyl)-1H-1,2,3-triazol-4-yl)phenyl)thio)benzoate] | 7.8 µM | 7.8 µM | 7.8 µM | 7.8 µM | 7.8 µM | 7.8 µM | > 50 µM | > 50 µM | –
COc1ccc(OC)c(-n2cc(-c3ccccc3Sc3ccc(C(F)(F)F)cc3)nn2)c1 [Compound 5dx, 1-(2,5-Dimethoxyphenyl)-4-(2-((4-(trifluoromethyl)phenyl)thio)phenyl)-1H-1,2,3-triazole] | 46.4 µM | – | – | 46.4 µM | 46.4 µM | 46.4 µM | > 50 µM | > 50 µM | –
COc1ccc(OC)c(-n2cc(-c3ccccc3Sc3ccc(C(=O)O)cc3)nn2)c1 [Compound 5fx, 4-((2-(1-(2,5-Dimethoxyphenyl)-1H-1,2,3-triazol-4-yl)phenyl)thio)benzoic Acid] | 4.5 µM | 4.5 µM | 4.5 µM | 4.5 µM | 4.5 µM | 4.5 µM | > 50 µM | > 50 µM | –
COc1ccc(OC)c(-n2cc(-c3ccccc3S(=O)(=O)c3ccc(C(=O)O)cc3)nn2)c1 [Compound 5fy, 4-((2-(1-(2,5-Dimethoxyphenyl)-1H-1,2,3-triazol-4-yl)phenyl)sulfonyl)benzoic Acid] | > 50 µM | – | – | > 50 µM | > 50 µM | > 50 µM | > 50 µM | > 50 µM | –
COc1ccccc1-n1cc(-c2ccccc2Sc2ccc(N)cc2)nn1 [Compound 2ex, 4-((2-(1-(2-Methoxyphenyl)-1H-1,2,3-triazol-4-yl)phenyl)thio)aniline] | 2.5 µM | 7.5 µM | 2.5 µM | 2.5 µM | 2.5 µM | 2.5 µM | > 50 µM | > 50 µM | 1 to 3 µM
COc1ccc(-n2cc(-c3ccccc3S(=O)(=O)c3ccc([N+](=O)[O-])cc3)nn2)c(OC)c1 [Compound 4ay, 1-(2,4-Dimethoxyphenyl)-4-(2-((4-nitrophenyl)sulfonyl)phenyl)-1H-1,2,3-triazole] | > 50 µM | – | – | > 50 µM | > 50 µM | > 50 µM | > 50 µM | > 50 µM | –
COc1cccc(-n2cc(-c3ccccc3S(=O)(=O)c3ccc([N+](=O)[O-])cc3)nn2)c1OC [Compound 3ay, 1-(2,3-Dimethoxyphenyl)-4-(2-((4-nitrophenyl)sulfonyl)phenyl)-1H-1,2,3-triazole] | > 50 µM | – | – | > 50 µM | > 50 µM | > 50 µM | > 50 µM | > 50 µM | –
COc1cccc(-n2cc(-c3ccccc3S(=O)(=O)c3ccc(C(F)(F)F)cc3)nn2)c1OC [Compound 3dy, 1-(2,3-Dimethoxyphenyl)-4-(2-((4-(trifluoromethyl)phenyl)sulfonyl)phenyl)-1H-1,2,3-triazole] | > 50 µM | – | – | > 50 µM | > 50 µM | > 50 µM | > 50 µM | > 50 µM | –
COc1ccc(OC)c(-n2cc(-c3ccccc3Sc3ccc(N)cc3)nn2)c1 [Compound 5ex, 4-((2-(1-(2,5-Dimethoxyphenyl)-1H-1,2,3-triazol-4-yl)phenyl)thio)aniline] | > 50 µM | – | – | > 50 µM | > 50 µM | > 50 µM | > 50 µM | > 50 µM | –
COc1cccc(OC)c1-n1cc(-c2ccccc2S(=O)(=O)c2ccc([N+](=O)[O-])cc2)nn1 [Compound 6ay, 1-(2,6-Dimethoxyphenyl)-4-(2-((4-nitrophenyl)sulfonyl)phenyl)-1H-1,2,3-triazole] | > 50 µM | – | – | > 50 µM | > 50 µM | > 50 µM | > 50 µM | > 50 µM | –
COc1cccc(OC)c1-n1cc(-c2ccccc2S(=O)(=O)c2ccc(N)cc2)nn1 [Compound 6ey, 4-((2-(1-(2,6-Dimethoxyphenyl)-1H-1,2,3-triazol-4-yl)phenyl)sulfonyl)aniline] | 1.5 µM | 1.5 µM | 1.5 µM | 1.5 µM | 1.5 µM | 1.5 µM | > 50 µM | > 50 µM | 1 to 3 µM
COC(=O)c1ccc(Sc2ccccc2-c2cn(-c3ccccc3OC)nn2)cc1 [Compound 2bx, Methyl 4-((2-(1-(2-methoxyphenyl)-1H-1,2,3-triazol-4-yl)phenyl)thio)benzoate] | > 50 µM | – | – | > 50 µM | > 50 µM | > 50 µM | > 50 µM | > 50 µM | –
COc1cccc(F)c1-n1cc(-c2ccccc2Sc2ccc([N+](=O)[O-])cc2)nn1 [Compound 7ax, 1-(2-Fluoro-6-methoxyphenyl)-4-(2-((4-nitrophenyl)thio)phenyl)-1H-1,2,3-triazole] | 3.9 µM | 3.9 µM | 3.9 µM | 3.9 µM | 3.9 µM | 3.9 µM | > 50 µM | > 50 µM | –
COc1ccccc1-n1cc(-c2ccccc2S(=O)(=O)c2ccc([N+](=O)[O-])cc2)nn1 [Compound 2ay, 1-(2-Methoxyphenyl)-4-(2-((4-nitrophenyl)sulfonyl)phenyl)-1H-1,2,3-triazole] | 13.8 µM | 13.8 µM | 13.8 µM | 13.8 µM | 13.8 µM | 13.8 µM | > 50 µM | > 50 µM | –
COc1ccc(-n2cc(-c3ccccc3S(=O)(=O)c3ccc(C(F)(F)F)cc3)nn2)c(OC)c1 [Compound 4dy, 1-(2,4-Dimethoxyphenyl)-4-(2-((4-(trifluoromethyl)phenyl)sulfonyl)phenyl)-1H-1,2,3-triazole] | 12 µM | 12 µM | 12 µM | 12 µM | 12 µM | 12 µM | > 50 µM | > 50 µM | –
COc1ccc(Sc2ccccc2-c2cn(-c3cc(OC)ccc3OC)nn2)cc1 [Compound 5cx, 1-(2,5-Dimethoxyphenyl)-4-(2-((4-methoxyphenyl)thio)phenyl)-1H-1,2,3-triazole] | 15.7 µM | 15.7 µM | 15.7 µM | 15.7 µM | 15.7 µM | 15.7 µM | > 50 µM | > 50 µM | –
